We go through 1 compound from US5091191A (Yoshitomi Pharmaceutical Industries, Ltd., priority 1988, dated 1992).

Series [1] is described as follows: Solubility of the Compound at different pH values (FIG. 1). Type of series: physicochemical. The note with it: weakly acid to neutral, about pH 3 to about pH 7. The source says:
FIG. 1 is a graph showing the solubility of the Compound at different ph valves. FIGS. 2, 3 and 4 are the graphs showing the dissolution test results of the Compound and the tablets of Reference Example 1, the fine granules of Example 1 and the tablets of Example 2, respectively.

Series [2] is described as follows: Behaviour of finely-powdered Compound in weakly acid solution. Type of series: physicochemical.

`Cc1ccc(-n2ccnc2)cc1C(O)c1c(C)cc(C(=O)[O-])cc1C.[Na+]` (stereo not drawn): the solubility entry in series [1] is recorded as “lowered under weakly acid to neutral conditions”. The “conversion to corresponding free acid” value in series [2] (added to a weakly acid solution) is “the corresponding free acid was produced through chemical reaction”. For the same compound, the “dissolution-improving effect of finely-powdering” value in series [2] (weakly acid solution) is recorded as “there was not found any dissolution-improving effect”.
